Molecular target: T1, MER (Homo sapiens, UniProt Q12866)
T1 sequence (Q12866 21-999): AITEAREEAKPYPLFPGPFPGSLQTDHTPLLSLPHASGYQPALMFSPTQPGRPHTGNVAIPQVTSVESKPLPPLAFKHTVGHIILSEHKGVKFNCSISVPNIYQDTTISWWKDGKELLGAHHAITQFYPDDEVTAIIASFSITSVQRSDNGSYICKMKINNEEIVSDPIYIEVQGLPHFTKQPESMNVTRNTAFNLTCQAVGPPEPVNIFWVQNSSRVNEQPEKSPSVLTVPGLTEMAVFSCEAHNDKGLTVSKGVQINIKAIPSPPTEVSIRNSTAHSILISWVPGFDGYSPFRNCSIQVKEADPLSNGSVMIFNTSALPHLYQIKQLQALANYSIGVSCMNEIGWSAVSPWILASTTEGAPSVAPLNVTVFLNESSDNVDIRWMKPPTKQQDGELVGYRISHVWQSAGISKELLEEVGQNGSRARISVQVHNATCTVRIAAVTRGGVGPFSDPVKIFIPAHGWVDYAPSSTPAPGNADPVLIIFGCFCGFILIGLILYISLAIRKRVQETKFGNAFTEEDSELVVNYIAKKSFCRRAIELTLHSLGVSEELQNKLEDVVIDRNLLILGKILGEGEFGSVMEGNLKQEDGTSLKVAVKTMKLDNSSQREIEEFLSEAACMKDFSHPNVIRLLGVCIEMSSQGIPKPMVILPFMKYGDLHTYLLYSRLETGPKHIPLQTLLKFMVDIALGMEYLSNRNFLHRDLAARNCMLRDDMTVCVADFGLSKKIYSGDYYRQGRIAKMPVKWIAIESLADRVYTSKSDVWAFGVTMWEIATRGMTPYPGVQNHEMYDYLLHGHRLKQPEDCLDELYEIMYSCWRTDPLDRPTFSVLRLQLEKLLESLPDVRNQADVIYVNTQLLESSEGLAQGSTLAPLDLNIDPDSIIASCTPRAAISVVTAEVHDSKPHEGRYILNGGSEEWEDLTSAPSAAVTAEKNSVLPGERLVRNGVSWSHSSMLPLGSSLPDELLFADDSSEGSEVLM
Test: Phospho-MER inhibition assay in G361 cells (ELISA)
Format: cell-based
Design: G361 cells, a melanoma cell line expressing high level of MER kinase; endogenous in cells; host or cells: G361
Settings: G361 melanoma cells, N=2 (FIG. 3); read-out: IC50, MER phosphorylation induced by MAB8912
Protocol: The potency of Compound 1 in blocking MER auto-phosphorylation was evaluated in G361 cells, a melanoma cell line expressing high level of MER kinase.
Newly thawed G361 cells were allowed to recover for three passages before use, and only cells within 20 passages after thawing were used in the assay. Cells were kept under nonconfluent conditions and used in log-phase growth. Two mL of 1×10^6 cells/mL (2×10^6 cells/well) G361 cells were added to a six-well tissue-culture plates (Corning Incorporated; #3961) for 2 days. At the time of the assay, 1 mL of medium was added to each well. […] The optical density of the plate was measured using a Molecular Devices SpectraMax Plus microplate reader (Molecular Devices, San Jose, Calif.) at 450 nm with wavelength correction at 540 nm. Absorbance of the standards was plotted versus the concentration to generate a standard curve using four-parameter algorithm curve fitting software (SOFTmax PRO application, Molecular Devices). pMER concentrations for unknown samples were determined by extrapolation from the standard curve. IC50 values were calculated by GraphPad Prism 7.0 using a nonlinear regression sigmoidal dose-response curve with variable slope.

Q: For `CC(C)C(=O)N1CCC(c2cc(-c3ccc(NC(=O)c4cn(C(C)C)c(=O)n(-c5ccccn5)c4=O)cc3)c3c(N)ncnn23)CC1` [Compound 1, N-(4-(4-Amino-7-(1-isobutyrylpiperidin-4-yl)pyrrolo[1,2-f][1,2,4]triazin-5-yl)phenyl)-1-isopropyl-2,4-dioxo-3-(pyridin-2-yl)-1,2,3,4-tetrahydropyrimidine-5-carboxamide], which IC50 is on record?
A: Its IC50 is 8.3 ± 3.1 nM.

Source: patent publication US12214036B2, “Combination therapy comprising AXL/MER and PD-1/PD-L1 inhibitors” (Incyte Corporation, priority 2020, dated 2025)
